What was measured:
Type in all cases: in vivo
Conditions in all cases: post-emergence spray at 4-5 leaf stage, 250 g/ha active ingredient with 450 kg/ha water, rated after 3 weeks in greenhouse
rice = assay: post-emergence stage experiment, crop (Table 1); design: key: Level 10: completely dead; Level 9: above 95% growth control rate; Level 8: above 90% growth control rate; Level 7: above 80% growth control rate; Level 6: above 70% growth control rate; Level 5: above 60% growth control rate; Level 4: above 50% growth control rate; Level 3: above 20% growth control rate; Level 2: 5%-20% growth control rate; Level 1: below 5% growth control rate
How it was run: (§1)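 Weeds and crops grown in soil-filled pots in a greenhouse were sprayed at the 4-5 leaf stage (2-3 weeks after sowing). Compounds were applied in acetone with tween 80, diluted in water. After 3 weeks' culture, growth control was scored as fresh weight control rate.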

corn = assay: post-emergence stage experiment, crop (Table 1)
How it was run: as §1

wheat = assay: post-emergence stage experiment, crop (Table 1)
How it was run: as §1

bidens bipinnata = assay: weed control effect in post-emergence stage (Table 1); design: key: Level 10: completely dead; Level 9: above 95% growth control rate; Level 8: above 90% growth control rate; Level 7: above 80% growth control rate; Level 6: above 70% growth control rate; Level 5: above 60% growth control rate; Level 4: above 50% growth control rate; Level 3: above 20% growth control rate; Level 2: 5%-20% growth control rate; Level 1: below 5% growth control rate
How it was run: as §1

crab grass = assay: as above; design: key: Level 10: completely dead; Level 9: above 95% growth control rate; Level 8: above 90% growth control rate; Level 7: above 80% growth control rate; Level 6: above 70% growth control rate; Level 5: above 60% growth control rate; Level 4: above 50% growth control rate; Level 3: above 20% growth control rate; Level 2: 5%-20% growth control rate; Level 1: below 5% growth control rate
How it was run: as §1

Indian mallow = assay: as above; design: key: Level 10: completely dead; Level 9: above 95% growth control rate; Level 8: above 90% growth control rate; Level 7: above 80% growth control rate; Level 6: above 70% growth control rate; Level 5: above 60% growth control rate; Level 4: above 50% growth control rate; Level 3: above 20% growth control rate; Level 2: 5%-20% growth control rate; Level 1: below 5% growth control rate
How it was run: as §1

rorippa indica = assay: as above; design: key: Level 10: completely dead; Level 9: above 95% growth control rate; Level 8: above 90% growth control rate; Level 7: above 80% growth control rate; Level 6: above 70% growth control rate; Level 5: above 60% growth control rate; Level 4: above 50% growth control rate; Level 3: above 20% growth control rate; Level 2: 5%-20% growth control rate; Level 1: below 5% growth control rate
How it was run: as §1

echinochloa = assay: as above; design: key: Level 10: completely dead; Level 9: above 95% growth control rate; Level 8: above 90% growth control rate; Level 7: above 80% growth control rate; Level 6: above 70% growth control rate; Level 5: above 60% growth control rate; Level 4: above 50% growth control rate; Level 3: above 20% growth control rate; Level 2: 5%-20% growth control rate; Level 1: below 5% growth control rate
How it was run: as §1

foxtail = assay: as above; design: key: Level 10: completely dead; Level 9: above 95% growth control rate; Level 8: above 90% growth control rate; Level 7: above 80% growth control rate; Level 6: above 70% growth control rate; Level 5: above 60% growth control rate; Level 4: above 50% growth control rate; Level 3: above 20% growth control rate; Level 2: 5%-20% growth control rate; Level 1: below 5% growth control rate
How it was run: as §1

Row | SMILES | effect on crop, Rice (level) (rice) | effect on crop, Corn (level) (corn) | effect on crop, Wheat (level) (wheat) | weed control effect, Bidens bipinnata (level) (bidens bipinnata) | weed control effect, Crab grass (level) (crab grass) | weed control effect, Indian mallow (level) (Indian mallow) | weed control effect, Rorippa indica (level) (rorippa indica) | weed control effect, Echinochloa (level) (echinochloa) | weed control effect, Green foxtail (level) (foxtail)
1 | CCn1nc(C)c(C(=O)c2ccc(C(F)(F)F)c(-n3cc(C)cn3)c2Cl)c1OC(=O)c1cn(C)nc1C [Compound 139] | 9 (Level 9: above 95% growth control rate) | 4 (Level 4: above 50% growth control rate) | 2 (Level 2: 5%-20% growth control rate) | 5 (Level 5: above 60% growth control rate) | 8 (Level 8: above 90% growth control rate) | 3 (Level 3: above 20% growth control rate) | 10 | 10 | 10
2 | CCOC(=O)Oc1c(C(=O)c2ccc(C(F)(F)F)c(N3CCCCCC3=O)c2Cl)c(C)nn1C [Compound 055] | 6 (Level 6: above 70% growth control rate) | 0 | 0 | 10 | 4 (Level 4: above 50% growth control rate) | 10 | 2 (Level 2: 5%-20% growth control rate) | 8 (Level 8: above 90% growth control rate) | 9 (Level 9: above 95% growth control rate)
3 | CCc1nn(CC)c(OC(=O)c2cn(C)nc2C)c1C(=O)c1ccc(C(F)(F)F)c(-n2cccn2)c1Cl [Compound 133] | 8 (Level 8: above 90% growth control rate) | 4 (Level 4: above 50% growth control rate) | 2 (Level 2: 5%-20% growth control rate) | 8 (Level 8: above 90% growth control rate) | 2 (Level 2: 5%-20% growth control rate) | 10 | 4 (Level 4: above 50% growth control rate) | 10 | 8 (Level 8: above 90% growth control rate)
4 | CCOC(=O)Oc1c(C(=O)c2ccc(C(F)(F)F)c(-n3cccn3)c2Cl)c(C)nn1C [Compound 069] | 5 (Level 5: above 60% growth control rate) | 0 | 0 | 10 | 3 (Level 3: above 20% growth control rate) | 10 | 0 | 6 (Level 6: above 70% growth control rate) | 10
5 | CCc1nn(CC)c(O)c1C(=O)c1ccc(C(F)(F)F)c(N2CCCCC2=O)c1Cl [Compound 112] | 7 (Level 7: above 80% growth control rate) | 3 (Level 3: above 20% growth control rate) | 3 (Level 3: above 20% growth control rate) | 1 (Level 1: below 5% growth control rate) | 6 (Level 6: above 70% growth control rate) | 5 (Level 5: above 60% growth control rate) | 2 (Level 2: 5%-20% growth control rate) | 10 | 5 (Level 5: above 60% growth control rate)
6 | CCc1nn(C)c(O)c1C(=O)c1ccc(C(F)(F)F)c(N2CCCCC2=O)c1Cl [Compound 110] | 10 | 0 | 2 (Level 2: 5%-20% growth control rate) | 5 (Level 5: above 60% growth control rate) | 2 (Level 2: 5%-20% growth control rate) | 9 (Level 9: above 95% growth control rate) | 10 | 9 (Level 9: above 95% growth control rate) | 10
7 | Cc1cc(C)n(-c2c(C(F)(F)F)ccc(C(=O)c3c(C)nn(C)c3OC(=O)c3cn(C)nc3C)c2Cl)n1 [Compound 094] | 0 | 1 (Level 1: below 5% growth control rate) | 0 | 2 (Level 2: 5%-20% growth control rate) | 3 (Level 3: above 20% growth control rate) | 3 (Level 3: above 20% growth control rate) | 0 | 1 (Level 1: below 5% growth control rate) | 1 (Level 1: below 5% growth control rate)
8 | CCn1nc(C)c(C(=O)c2ccc(C(F)(F)F)c(N3CCCCCC3=O)c2Cl)c1O [Compound 118] | 1 (Level 1: below 5% growth control rate) | 2 (Level 2: 5%-20% growth control rate) | 1 (Level 1: below 5% growth control rate) | 1 (Level 1: below 5% growth control rate) | 1 (Level 1: below 5% growth control rate) | 0 | 5 (Level 5: above 60% growth control rate) | 9 (Level 9: above 95% growth control rate) | 10
9 | CCc1nn(CC)c(O)c1C(=O)c1ccc(C(F)(F)F)c(N2CCCCCC2=O)c1Cl [Compound 122] | 5 (Level 5: above 60% growth control rate) | 0 | 1 (Level 1: below 5% growth control rate) | 5 (Level 5: above 60% growth control rate) | 3 (Level 3: above 20% growth control rate) | 5 (Level 5: above 60% growth control rate) | 0 | 9 (Level 9: above 95% growth control rate) | 10

Reference: patent publication US11076594B2, “Pyrazolone compound or salt thereof, preparation method therefor, herbicide composition and use thereof” (QINGDAO KINGAGROOT CHEMICAL COMPOUNDS CO., LTD., priority 2015, dated 2021)
